Columns and labels:
[1] = tested on: lymphatic drainage from tumor-bearing mammary glands; assay: Mammo-MR-lymphangiography of tumor-bearing mammary glands, BALB-neuT transgenic breast cancer model; format: in vivo, BALB-neuT transgenic mice; settings: FIG. 4
Protocol: The breast-tumor bearing mice were thirty one week-old BALB-neuT mice (n=3) transgenic for the rat HER-2/neu (Erb B2) oncogene under the control of the mouse mammary tumor virus promotor (MMTV). […] BALB-neuT mice were used because of their spontaneous development of bilateral breast cancers and lymph node metastases. […] Most metastatic lymph nodes from the mouse mammary pad localize in the neck, lateral thoracic, or axillary region.
Mice were anesthetized with 1.15 mg sodium pentobarbital (Dainabot, Osaka, Japan), and then injected with 0.15-0.24 μmol Gd/5-8 μL of the PAMAM-G6 contrast agent into normal mammary glands or mammary tissue surrounding a tumor (peritumorally). Dynamic micro-MR images were obtained using a 1.5-Tesla superconductive magnet unit (Signa LX, General Electric Medical System, Milwaukee, Wis.) with a birdcage type coil of 3 cm diameter fixed by a custom made coil holder. [Single and double “breast coils” used for imaging breasts in humans are commercially available, for example, from GE Medical Systems (Milwaukee, Wis.) and are routinely available in outpatient MRI centers] The mice were wrapped with gauze to stabilize their body temperature and were placed at the center of the coils. […]

[2] = Distribution and survival properties of the dendrimer conjugates; settings: in vivo
[3] = tested on: draining lymph nodes and lymphatic vessels; assay: 3D dynamic mammo-lymphangiograms after sequential injection of GPDM and PAMAM-G6 into the mammary gland; format: in vivo, athymic nu/nu mice; settings: 0.15 μmol Gd into mammary gland; GPDM imaged at 12, 24, 36 min, then PAMAM-G6 injected 36 minutes following GPDM
Protocol: Mice were anesthetized with 1.15 mg sodium pentobarbital (Dainabot, Osaka, Japan), and then injected with 0.15-0.24 μmol Gd/5-8 μL of the PAMAM-G6 contrast agent into normal mammary glands or mammary tissue surrounding a tumor (peritumorally). Dynamic micro-MR images were obtained using a 1.5-Tesla superconductive magnet unit (Signa LX, General Electric Medical System, Milwaukee, Wis.) with a birdcage type coil of 3 cm diameter fixed by a custom made coil holder. [Single and double “breast coils” used for imaging breasts in humans are commercially available, for example, from GE Medical Systems (Milwaukee, Wis.) and are routinely available in outpatient MRI centers] The mice were wrapped with gauze to stabilize their body temperature and were placed at the center of the coils. Athymic nu/nu mice (n=4) were anesthetized and injected with 0.15 μmol Gd of GPDM into the mammary gland, and images were taken 12, 24, and 36 min after injection. Following these three images, these mice were subsequently injected with 0.15 μmol Gd of PAMAM-G6 contrast agent in the mammary gland, and images were taken at 12 and 24 min post-injection of the PAMAM-G6 contrast agent (at 48 and 60 min post-injection of GPDM).

[4] = tested on: Draining Lymph Nodes (LNs) From the Normal Breast Tissue; assay: Dynamic micro-MR mammo-lymphangiography of lymphatic drainage from the normal mammary gland; format: in vivo, mice (Balb/c, athymic nu/nu)
Protocol: (§1) Mice were anesthetized with 1.15 mg sodium pentobarbital (Dainabot, Osaka, Japan), and then injected with 0.15-0.24 μmol Gd/5-8 μL of the PAMAM-G6 contrast agent into normal mammary glands or mammary tissue surrounding a tumor (peritumorally). Dynamic micro-MR images were obtained using a 1.5-Tesla superconductive magnet unit (Signa LX, General Electric Medical System, Milwaukee, Wis.) with a birdcage type coil of 3 cm diameter fixed by a custom made coil holder. [Single and double “breast coils” used for imaging breasts in humans are commercially available, for example, from GE Medical Systems (Milwaukee, Wis.) and are routinely available in outpatient MRI centers] The mice were wrapped with gauze to stabilize their body temperature and were placed at the center of the coils.
In order to evaluate the lymphatic drainage from the normal mammary gland of either Balb/c mice (n=5) or athymic nu/nu mice (n=5), 3D-fast spoiled gradient echo [3D-fastSPGR (efgre3d package; Signa Horizon, GE); repetition time/echo time 19.2/7.2 msec; inversion time 47 msec; 31.2 kHz, flip angle 30°, 4 excitations; 36 slice encoding steps; scan time 4 min 49 seconds] with chemical shift fat-suppression was used 6, 12, 18, 24, 30, 36, 42, and 48 min after injection of the contrast agent. The coronal images were reconstructed with 0.6-mm section thickness every 0.3-mm. The FOV was 8×4 cm and the size of the matrix was 512×256. The slice data were processed into 3D images using the maximum intensity projection (MIP) method with the same window and level (window 3500 and level 2100) (Advantage Windows, General Electric Medical System). After imaging, the mice were sacrificed by carbon dioxide inhalation.

[5] = tested on: lymphatic drainage from PT-18 tumor-bearing mammary gland; assay: Mammo-MR-lymphangiography of PT-18 tumor xenograft-bearing mammary gland; format: in vivo, athymic nu/nu mice; settings: FIG. 5
Protocol: Tumor xenografts of PT-18, a murine mast cell line, were introduced into the left mammary pad in athymic nu/nu mice. When 10^7 PT-18 cells were injected in the left mammary pad of 10 athymic nu/nu mice, six mice developed tumor masses in the left axillary lymph nodes within three weeks.
as §1
In order to evaluate lymphatic drainage from six tumor-bearing mammary glands of three BALB-neuT transgenic mice or the PT-18 tumor-bearing mammary gland of athymic nu/nu mice (n=6), 2D fast-inversion recovery [2D-fastIR; repetition time/echo time 8000/96 msec; inversion time 150 msec; 31.2 kHz, 2 excitations; 16 slices; scan time 2 min 16 seconds] was employed to evaluate the tumor localization before injection of PAMAM-G6 contrast agent. The coronal images were reconstructed with 1.5 mm section thickness without a gap. The FOV was 8×4 cm and the size of matrix was 512×256. The slice data were processed into 3D images using the MIP method with the same window and level (window 3500 and level 2100) (Advantage Windows, GE). Then images were obtained with the 3D-fastSPGR sequence as described above.

[6] = 6 min after injection into normal mammary gland
[7] = 12 min after injection into normal mammary gland
[8] = 18 min after injection into normal mammary gland
[9] = 24 min after injection into normal mammary gland
[10] = 30 min after injection into normal mammary gland
[11] = 36 min after injection into normal mammary gland
[12] = 42 min after injection into normal mammary gland
[13] = 48 min after injection into normal mammary gland

With “PAMAM-G6D-(Gd-1B4M)256 dendrimer conjugate” the “Imaging of enlarged lymph nodes containing tumor metastases and dilated lymphatic vessels” value [1] was “clearly imaged”, the “Visualization of flow within the draining lymphatic vessels” value ([1]; peritumoral injection) was “readily visualized” and the “Survival period in the lymph system” value [2] was “intermediate survival period in the lymph system”. For the same substance, the “Visualization of draining lymph nodes and lymphatic vessels (FIG. 3)” value [3] was “clearly visualized”, the “Visualized LNs/Total Examined LNs, Axillary LN” value [4, 6] was 10/10 and the “Visualized LNs/Total Examined LNs, Lateral thoracic LN” value [4, 6] was 0/10. The “Visualized LNs/Total Examined LNs, Superficial cervical LN” value [4, 6] was 1/10, the “Visualized LNs/Total Examined LNs, Axillary LN” value [4, 7] was 10/10 and the “Visualized LNs/Total Examined LNs, Lateral thoracic LN” value [4, 7] was 1/10. For the same substance, the “Visualized LNs/Total Examined LNs, Superficial cervical LN” value [4, 7] was 1/10, the “Visualized LNs/Total Examined LNs, Axillary LN” value [4, 8] was 10/10 and the “Visualized LNs/Total Examined LNs, Lateral thoracic LN” value [4, 8] was 2/10. For the same substance, the “Visualized LNs/Total Examined LNs, Superficial cervical LN” value [4, 8] was 1/10, the “Visualized LNs/Total Examined LNs, Axillary LN” value [4, 9] was 10/10 and the “Visualized LNs/Total Examined LNs, Lateral thoracic LN” value [4, 9] was 4/10. For the same substance, the “Visualized LNs/Total Examined LNs, Superficial cervical LN” value [4, 9] was 2/10, the “Visualized LNs/Total Examined LNs, Axillary LN” value [4, 10] was 10/10 and the “Visualized LNs/Total Examined LNs, Lateral thoracic LN” value [4, 10] was 4/10. The “Visualized LNs/Total Examined LNs, Superficial cervical LN” value [4, 10] was 2/10, the “Visualized LNs/Total Examined LNs, Axillary LN” value [4, 11] was 10/10 and the “Visualized LNs/Total Examined LNs, Lateral thoracic LN” value [4, 11] was 5/10. For the same substance, the “Visualized LNs/Total Examined LNs, Superficial cervical LN” value [4, 11] was 3/10, the “Visualized LNs/Total Examined LNs, Axillary LN” value [4, 12] was 10/10 and the “Visualized LNs/Total Examined LNs, Lateral thoracic LN” value [4, 12] was 6/10. The “Visualized LNs/Total Examined LNs, Superficial cervical LN” value [4, 12] was 3/10, the “Visualized LNs/Total Examined LNs, Axillary LN” value [4, 13] was 10/10 and the “Visualized LNs/Total Examined LNs, Lateral thoracic LN” value [4, 13] was 6/10. For the same substance, the “Visualized LNs/Total Examined LNs, Superficial cervical LN” value [4, 13] was 3/10, the “Mice in which the axillary lymph node and its afferent lymphatic vessels were visualized” value ([4]; initial (6 min) time point) was “all 10 mice” and the “Enhancement of axillary lymph node tissue with metastatic tumor cells” value [5] was “did not shown enhancement”. The “Enhancement of the lymphatic vessel flowing into the lymph node with a metastatic tumor” value [5] was “dilated and showed enhancement” and the “Visualization of flow within the draining lymphatic vessels” value ([5]; peritumoral injection) was “readily visualized”.
